The nature of data set [1]: Encapsulation efficiency, RiboGreen RNA assay (Method A). Format: physicochemical. The following applies: LNP formulated by Method A. The protocol:
(§1) The synthesized lipids were tested in term of in vitro transfection efficacy and toxicity on HeLa cells. In order to perform the mentioned biological tests, appropriate LNPs had to be formulated from the synthesized lipids. The formulation technique was different in Method A and B. The particle size, PDI and zeta potential of resulting LNPs were determined by means of Dynamic Light Scattering technique (DLS). Prior to biological testing the encapsulation efficiency (EE) of the loaded LNPs was determined by using RiboGreen RNA assay. In case of Method A Luciferase-mRNA while in case of Method B GFP-mRNA was transfected into the cells. In parallel with the transfection experiments, toxicity of the investigated LNPs was determined, in case of Method A resazurin assay while in case of Method B MTT assay was used. In the case of some lipids, the apparent pKa in LNPs was determined by using TNS titration based on the method described: Angew Chem Int Ed Engl. 2012, 51 (34), 8529-8533, doi: 10.1002/anie.201203263).
• 1. Preparation of sample stock solutions: In the top row of the 96-well plate (Row A in the plate), add 297 μL of TE buffer pH 7.4 to a single well for each sample plus a single well for a PBS blank using a multichannel pipette. • 2. Add 3 μL of sample (at 0.5 mg/ml) to these wells for a final volume of 300 μL. Add 3 μL of PBS to the blank well. Pipette to mix. This is your stock solution for each sample. The final RNA concentration of these stock solutions should be approximately 4-7 μg/mL. • 3. mRNA-LNP sample setup: • a. Add 50 μL of TE buffer pH 7.5 to the two wells directly below each sample (Rows B and C in the plate). • b. Add 50 μL of sample stock solution from Row A into the wells in Rows B and C (this assay is run in duplicate. All liquid handling should be done using a multichannel pipette). • c. Add 50 μL of Triton buffer to the wells in Rows D and E (in the plate) below each sample. • d. Add 50 μL of sample stock solution from Row A into the wells in Rows D and E. • 4. RiboGreen RNA standard curve setup: Dilute the RNA standard to produce an RNA stock at a final concentration of 20 μg/mL in TE buffer pH 7.4. The final volume should be 150 μL. Set up a standard curve (in duplicate) as using the RNA stock (20 μg/mL siRNA), TE buffer pH 7.5, and Triton buffer according the Table 2 below.
• 5. Once samples and standard curve are plated, incubate the plate at 37° C. for 10 min to lyse mRNA-LNP in the presence of Triton X-100. • 6. Meanwhile, prepare RiboGreen Solution: Sum the total number of sample wells and standard curve wells. Add three to this number, and multiply the total by 100. This is the total volume, in μL, of RiboGreen Solution needed for this assay. In a 15 mL RNAse-free Falcon tube, dilute the RiboGreen Reagent 1:100 into TE buffer pH 7.5 to the total volume calculated. • 7. Addition of RiboGreen Solution and sample readings: Remove a 96-well plate from 37° C. incubator; let it cool to room temperature as RiboGreen binding is somewhat temperature dependent. Add 100 μL of RiboGreen Solution to each well. Pop any air bubbles with a needle. Read using fluorescent plate reader (excitation=480, emission=525). • 8. Sample analysis: Use the data generated by the RiboGreen standard curve to calculate the concentration of mRNA. Transfection Efficiency with Luciferase-mRNA (Method A)

Data set [2] in a line: LNP size, PDI and zeta potential by Dynamic Light Scattering (Method A). In kind it is physicochemical. The following applies: LNP formulated by Method A; for Zeta potential (mV): 1xPBS pH 7.4; for PDI / Size (nm): DLS; for Size (nm): Luciferase-mRNA loaded. As to the method:
as §1
• 1. If needed, prepare stock solutions by solving known amounts of lipid powder into an appropriate solvent. The recommended solvent is Ethanol and the recommended concentration is typically in the range 10-50 mM. Higher concentrations are preferred to allow flexibility on mRNA-LNP concentration. • 2. Remove the lipid stock solutions from the −20° C. freezer. For long-term storage, −80° C. is used. • 3. Check the vials for precipitation, DOPE (CAS #4004-05-1) (20 mM) and DSPE-PEG (CAS #474922-26-4) (5 mM) may need a 5-30 minute incubation step at 37° C. with intermittent vortexing to resuspend all contents. […] As a last resort, lipids may be heated to 50° C. to resuspend, time should be kept as short as possible to prevent oxidation or other modifying or degradative processes. • 4. Mix the lipids by vortexing for 2 minutes. • 5. […] Cooling the solution prevent excessive evaporation of ethanol or similar solvents upon opening. • 6. Meanwhile, thaw the RNA samples, including the latest SecNLuc control, by inserting the frozen tube in a room temperature aluminium block. • 7. Prepare for each LNP-formulation with identical mRNA component, an RNA master mix according to Table 1 below in a fresh tube. Use of a master mix allows more precise comparison of lipid formulations relative to each other. Split the master mix over a number of fresh tubes equal to the number of samples+controls. Each tube contains 375 μl of mRNA in 10 mM Citrate pH 4.0. • 8. Prepare for each LNP formulation with identical lipid composition a Lipid master mix according to Table 1 below in a fresh tube, exclude the lipid of interest. Use of a master mix allows more precise comparison of the novel ionizable lipid relative to each other. Split the master mix over a number of fresh tubes equal to the number of samples+controls. Each tube contains 65.5 μl of lipid master mix. • 9. Add the ionizable lipid of interest to the equally divide lipid master mix. Mix well by pipetting up and down. Label the tube according to the ionizable lipid used. • 10. Power on the ‘L 1 formulation machine’ (L 1 FM) and allow it to do a calibration of motor positions.
• 18. Fill a fresh syringe (C) through a blunt 18 G stainless steel needle with the previously prepared RNA mixture of step 6. The volume should be approximately […] of total formulation volume+25 μl (dead-volume). Make sure to remove all air bubbles by tapping. • 19. Fill a fresh syringe (D) through a blunt 18 G stainless steel needle with the Lipid master mix. The volume should be approximately 35% of total formulation volume+25 μl (dead-volume). Again, Make sure to remove all bubbles. • 20. Attach the syringes in the correct orientation, syringe A on the left and syringe B on the right • 21. Load the ‘Receiving station’ with appropriate sized collection containers (2 ml Eppendorf tubes). • 22. Press the microfluidic chip to the back of the machine with your thumb and hold, press the ‘Button 1’ (40 g). […]

Results on eleven compounds are retold here after patent US20260008793A1, “IONIZABLE CATIONIC LIPIDS INCORPORATING SILICON” (ALDEXCHEM KFT., priority 2022, published 2026).

On to `CCCCCCCCOC(CCCCCN(CCO)CCCCCCCC(=O)OC(CCCCCCCC)CCCCCCCC)O[Si](C)(C)OCCCCCCCC` (centres unmarked) [Example 190, heptadecan-9-yl 18-(2-hydroxyethyl)-10,10-dimethyl-12-(octyloxy)-9,11-dioxa-18-aza-10-silahexacosan-26-oate], for which, in data set [1], the “EE (%)” value is reported as 93%. In data set [2], the “Zeta potential (mV)” value is on record as −11.40 mV, the PDI amounted to 0.075 and the “Size (nm)” value worked out at 208.2 nm.

On to `CCCCCCCCOC(CCCCCN(CCCCO)CCCCCCOC(=O)C(CCCCCCCC)SCCCCC)O[Si](C)(C)CCCCCCCC` (centres unmarked) [Example 177, 6-((6-((dimethyl(octyl)silyl)oxy)-6-(octyloxy)hexyl)(4-hydroxybutyl)amino)hexyl 2-(pentylthio)decanoate], for which the “EE (%)” value in data set [1] is reported as 98%. Also, in data set [2], the “Zeta potential (mV)” value is on record as −14.50 mV, the PDI is recorded as 0.100 and the “Size (nm)” value stood at 166 nm.

Regarding `CCCCCCCCOC(CCCCCN(CCCCO)CCCCCCOC(=O)C(CCCCCC)CCCCCCCC)O[Si](C)(C)CCCCCCCC` (centres unmarked) [Example 128, 6-((6-((dimethyl(octyl)silyl)oxy)-6-(octyloxy)hexyl)(4-hydroxybutyl)amino)hexyl 2-hexyldecanoate], in data set [1], the “EE (%)” value worked out at 97%. Moreover, in data set [2], the “Zeta potential (mV)” value is recorded as −14.77 mV, the PDI turned out to be 0.107 and the “Size (nm)” value worked out at 228.6 nm.

For the compound `CCCCCCCCOC(CCCCCCC)O[Si](C)(C)OCCCCCN(CCCCO)CCCCCCOC(=O)C(CCCCCC)CCCCCCCC` (centres unmarked) [Example 146, 16-heptyl-7-(4-hydroxybutyl)-14,14-dimethyl-13,15,17-trioxa-7-aza-14-silapentacosyl 2-hexyldecanoate], in data set [1], the “EE (%)” value worked out at 97%. Further, in data set [2], the “Zeta potential (mV)” value was −11.0 mV, the PDI was determined as 0.07 and the “Size (nm)” value stood at 116.7 nm.

Turning to `CCCCCCCCOC(CCCCCCC)O[Si](C)(C)CCCCCCN(CCCCO)CCCCCCOC(=O)C(CCCCCC)CCCCCCCC` (centres unmarked) [Example 138, 16-heptyl-7-(4-hydroxybutyl)-14,14-dimethyl-15,17-dioxa-7-aza-14-silapentacosyl 2-hexyldecanoate], the “EE (%)” value in data set [1] was 95%. In data set [2], the “Zeta potential (mV)” value was −16.19 mV, the PDI was determined as 0.104 and the “Size (nm)” value is listed as 211.7 nm.

For the compound `CCCCCCCCCCSC(CCCC)C(=O)OCCCCCCN(CCCCO)CCCCCC(OCCCCCCCC)O[Si](C)(C)OCC(CCCCCC)CCCCCCCC` (centres unmarked) [Example 174, 18-hexyl-7-(4-hydroxybutyl)-15,15-dimethyl-13-(octyloxy)-14,16-dioxa-7-aza-15-silahexacosyl 2-(decylthio)hexanoate], the “EE (%)” value in data set [1] amounted to 96%. For the same compound, in data set [2], the “Zeta potential (mV)” value is listed as −15.5 mV, the PDI was found to be 0.159 and the “Size (nm)” value amounted to 222.6 nm.

On to `CCCCCCCC[Si](C)(C)OC(CCCCCCC)OCCCCCCN(CCCCO)CCCCCCOC(CCCCCCC)O[Si](C)(C)CCCCCCCC` (centres unmarked) [Example 102, 5-(6-((1-((dimethyl(octyl)silyl)oxy)octyl)oxy)hexyl)-13-heptyl-15,15-dimethyl-12,14-dioxa-5-aza-15-silatricosan-1-ol], for which the “EE (%)” value in data set [1] was 96%. For the same compound, in data set [2], the “Zeta potential (mV)” value is reported as −3.4 mV, the PDI was 0.06 and the “Size (nm)” value is reported as 212.9 nm.

With `CCCCCCCCOC(CCCCCN(CCO)CCCCCCCC(=O)OC(CCCCCCCC)CCCCCCCC)O[Si](C)(C)O[Si](C)(C)OCCCCCCCC` (centres unmarked) [Example 192, heptadecan-9-yl 8-((2-hydroxyethyl)(6-(octyloxy)-6-((1,1,3,3-tetramethyl-3-(octyloxy)disiloxaneyl)oxy)hexyl)amino)octanoate], in data set [1], the “EE (%)” value is listed as 97%. For the same compound, in data set [2], the “Zeta potential (mV)” value is reported as −12.28 mV, the PDI is 0.042 and the “Size (nm)” value amounted to 175.0 nm.

As to `CCCCCCCC[Si](C)(C)O[Si](C)(C)OC(CCCCCCC)OCCCCCCN(CCCCO)CCCCCCOC(CCCCCCC)O[Si](C)(C)O[Si](C)(C)CCCCCCCC` (centres unmarked) [Example 108, 13-heptyl-15,15,17,17-tetramethyl-5-(6-((1-((1,1,3,3-tetramethyl-3-octyldisiloxaneyl)oxy)octyl)oxy)hexyl)-12,14,16-trioxa-5-aza-15,17-disilapentacosan-1-ol], in data set [1], the “EE (%)” value came out at 94%. Besides, in data set [2], the “Zeta potential (mV)” value was −14.24 mV, the PDI is 0.211 and the “Size (nm)” value was 198.5 nm.

`CCCCCCCCO[Si](C)(C)OC(CCCCCCC)OCCCCCCN(CCCCCCOC(CCCCCCC)O[Si](C)(C)OCCCCCCCC)CCC1CCCN1C` (centres unmarked) [Example 121, 8-heptyl-N-(8-heptyl-10,10-dimethyl-7,9,11-trioxa-10-silanonadecyl)-10,10-dimethyl-N-(2-(1-methylpyrrolidin-2-yl)ethyl)-7,9,11-trioxa-10-silanonadecan-1-amine]: the “EE (%)” value in data set [1] is recorded as 98%. In data set [2], the “Zeta potential (mV)” value is −11.47 mV, the PDI was found to be 0.012 and the “Size (nm)” value is given as 179.2 nm.

Consider `CCCCCCCCO[Si](C)(C)O[Si](C)(C)OC(CCCCCCC)OCCCCCCN(CCCCO)CCC[C@@H](C)C1CCC2C3CCC4C[C@H](OC)CC[C@]4(C)C3CC[C@@]21C` (stereo partly drawn) [Example 221, 13-heptyl-5-((4R)-4-((3R,10S,13R)-3-methoxy-10,13-dimethylhexadecahydro-1H-cyclopenta[a]phenanthren-17-yl)pentyl)-15,15,17,17-tetramethyl-12,14,16,18-tetraoxa-5-aza-15,17-disilahexacosan-1-ol], for which the “EE (%)” value in data set [1] stood at 96%. Also, in data set [2], the “Zeta potential (mV)” value is recorded as −13.99 mV, the PDI is reported as 0.011 and the “Size (nm)” value stood at 142.1 nm.
